Read-outs that look alike come from different tables or passages of the source.
Columns and labels:
[1] = tested on: SW1990; assay: 2D combinational test (SRB growth inhibition, six days); type: cell-based, human; conditions: Homo sapiens, SW1990, SW1990, read-out: Relative cell viability (MEAN)
Source text: (§1) OD values were normalized to control. […] Data shown are results of three independent experiments.

[2] = tested on: SW480; assay: as above; type: cell-based, human; conditions: Homo sapiens
Source text: as §1

[3] = tested on: cancer patients; conditions: patients, cited from earlier work
[4] = tested on: SW1573; assay: 2D combinational test (SRB growth inhibition, six days); conditions: Homo sapiens
Experimental: (§4) H358, SW1573, H1792, MIAPACA2, SW1990, SNUC2B, SW480, A549 and HCT116 were purchased from ATCC, while SW48 KRAS G12C colorectal cell line and H838 KRAS G12D lung cell line was bought from Horizon Discovery Ltd. Most of the cell lines were heterozygous for mutant KRAS, as in human cases used to occur, but we also used cell lines with homozygous mutant KRAS.
(§5) Cells were cultured in DMEM (Lonza, Switzerland; with 4500 mg/dm3 glucose, pyruvate and L-glutamine) supplemented with 10% fetal calf serum (EuroClone) and 1% penicillin-streptomycin-amphotericin (Lonza) in tissue culture flasks in a humidified 5% CO2 atmosphere at 37° C.
(§6) For in vitro experiments drugs were dissolved in DMSO in 10 mM stock concentration and stored at −80° C.
(§7) Cells that reached 70-80% confluency were trypsinized and counted using Luna II Automated Cell Counter. Cells were plated in 5000-10000 cells/well density (depending on the growth rate of the given cell line) on a 24 well plate. Next day the medium was replaced to fresh medium supplemented with the inhibitors. After 6 days, the wells were washed with DPBS (Lonza) and the cells were fixed by 10% trichloroacetic acid and stained with Sulphorodamine-B (SRB) (Sigma) dye for 15 minutes. Plates then were repeatedly washed with 1% acetic acid to remove excess dye. Protein-bound SRB was then dissolved in 10 mM Tris buffer (pH=7,4) and OD was measured at 570 nm using a microplate reader (EL800, BioTec Instruments, Winooski, VT). OD values were normalized to control. Transformed data then were used to calculate combinational index (CI) values using Compusyn software as described in https://www.combosyn.com/index.html. Data shown are results of three independent experiments.

[5] = tested on: H358 xenografts; assay: In vivo tumor growth of subcutaneous xenografts; design: species or system female SCID mice; conditions: AMG510 5 mg/kg i.p. and/or tipifarnib 40 mg/kg i.p., (day 1 = 1)
Experimental: (§2) H358 and SW1573 human lung adenocarcinoma cells (5×10^6 and 1×10^6, respectively) were subcutaneously injected in female SCID mice. Cells were injected in 200 μl DMEM:Matrigel mixture (ratio 1:1) based on preliminary experiments. When tumor reached approximately 100 mm^3 (H358 7 days, SW1573 26 days after injection), animals were randomized and treated intraperitoneally daily except for weekends. Drugs were dissolved in 60% DPBS, 34% PEG300, 5% DMSO and 1% Tween80. […] Controls received vehicle. Doses were determined based on previous literature, roughly using half of the used per os doses. The subcutaneous tumors were measured with a caliper and tumor volumes were calculated with the formula […] and expressed in mm^3. H358 experiment was terminated after 18 days and SW1573 after 25 days treatment. Tumors were measured upon harvest, then fixed with 4% PFA for histological analyses.
(§3) Animals were the properties of the Department of Experimental Pharmacology, National Institute of Oncology, H-1122, Budapest, Hungary. All experiments were carried out in accordance with the Guidelines for Animal Experiments and were approved for the Department of Experimental Pharmacology in the National Institute of Oncology, Budapest, Hungary.

[6] = tested on: SW1573 xenografts; assay: In vivo tumor growth of subcutaneous xenografts; design: species or system female SCID mice; conditions: AMG510 25 mg/kg i.p. and/or tipifarnib 40 mg/kg i.p., (day 1 = 1)
Experimental: as §2, §3

[7] = tested on: SW1573; assay: siRNA knockdown experiment (SRB, IC50); type: cell-based, human; conditions: Homo sapiens, SW1573, 144 h, 6-day-long treatment
Experimental: Cells were plated in 2500 and 7500 cells/well density (for non-targeting siRNA and HRAS siRNA treatment, respectively) on a 48we11 plate supplemented with pre-mixed Lipofectamine RNAIMAX Reagent (Thermo Fisher) and OptiMEM (Thermo Fisher) containing 2.5 pmol/well non-targeting or HRAS siRNA according to the manufacturer's instruction (reverse transfection protocol). […] On the 3rd day of the treatment, cells were supplemented with fresh pre-mixed 2.5 pmol/well siRNA diluted in Lipofectamine RNAiMAX Reagent and Optimem according to the manufacturer's instruction. […] OD values were normalized to control, and IC50 values were calculated from transformed data using GraphPad PRISM 5 software.

[8] = tested on: PF97; assay: 2D combinational test (SRB growth inhibition, six days); conditions: Homo sapiens, 144 h
Experimental: as §4, §5, §6, §7

[9] = tested on: MIAPACA2; assay: as above; conditions: Homo sapiens, MIA PaCa-2, 144 h
Experimental: as §4, §5, §6, §7

[10] = group mean, in g (unit assumed)

## NC(=O)N1CCC(CC(=O)N2CCC([C@H]3c4ncc(Br)cc4CCc4cc(Cl)cc(Br)c43)CC2)CC1 [lonafarnib]
[1]; 200 nM lonafarnib + 0 nM MRTX1133
  viability at 0.2 µM: 83.1%
[1]; 1000 nM lonafarnib + 0 nM MRTX1133
  viability at 1 µM: 64.8%
[1]; 2000 nM lonafarnib + 0 nM MRTX1133
  viability at 2 µM: 57.6%
[2]; 500 nM lonafarnib + 0 μM BI2852, read-out: Relative cell viability (MEAN)
  viability at 0.5 µM: 72%
[2]; 1000 nM lonafarnib + 0 μM BI2852, read-out: Relative cell viability (MEAN)
  viability at 1 µM: 63.9%
[2]; 2000 nM lonafarnib + 0 μM BI2852, read-out: Relative cell viability (MEAN)
  viability at 2 µM: 55.7%
[3]; colorectal cancer
  Objective responses: no objective responses
[3]; ovarian cancer, in combination with chemotherapy
  Progression-free or overall survival: does not improve

## C=CC(=O)N1CCN(c2nc(=O)n(-c3c(C)ccnc3C(C)C)c3nc(-c4c(O)cccc4F)c(F)cc23)[C@@H](C)C1 [AMG-510]
[4]; SW1573, read-out: Viability data (MEAN), SW1573, BPH1222 0 μM + AMG-510 10 nM
  viability at 0.01 µM: 99.5%
[4]; SW1573, read-out: Viability data (MEAN), SW1573, BPH1222 0 μM + AMG-510 25 nM
  viability at 0.025 µM: 99.8%
[4]; SW1573, read-out: Viability data (MEAN), SW1573, BPH1222 0 μM + AMG-510 50 nM
  viability at 0.05 µM: 97.7%
[4]; SW1573, read-out: Viability data (MEAN), SW1573, SIMVASTATIN 0 μM + AMG-510 10 nM
  viability at 0.01 µM: 96.6%
[4]; SW1573, read-out: Viability data (MEAN), SW1573, SIMVASTATIN 0 μM + AMG-510 25 nM
  viability at 0.025 µM: 92.5%
[4]; SW1573, read-out: Viability data (MEAN), SW1573, SIMVASTATIN 0 μM + AMG-510 50 nM
  viability at 0.05 µM: 89.9%

## Cn1cncc1[C@@](N)(c1ccc(Cl)cc1)c1ccc2c(c1)c(-c1cccc(Cl)c1)cc(=O)n2C [tipifarnib]
[1]; 100 nM tipifarnib + 0 μM BI2852
  viability at 0.1 µM: 75.6%
[1]; 100 nM tipifarnib + 0 nM MRTX1133
  viability at 0.1 µM: 80.2%
[1]; 500 nM tipifarnib + 0 μM BI2852
  viability at 0.5 µM: 67%
[1]; 500 nM tipifarnib + 0 nM MRTX1133
  viability at 0.5 µM: 70.3%
[1]; 1000 nM tipifarnib + 0 μM BI2852
  viability at 1 µM: 55%
[1]; 1000 nM tipifarnib + 0 nM MRTX1133
  viability at 1 µM: 63.4%
[5]; animal 1, in g (unit assumed)
  Weights of the tumors at the end of the experiment: 0.182
[5]; animal 2, in g (unit assumed)
  Weights of the tumors at the end of the experiment: 1.599
[5]; animal 3, in g (unit assumed)
  Weights of the tumors at the end of the experiment: 1.023
[5]; animal 4, in g (unit assumed)
  Weights of the tumors at the end of the experiment: 0.223
[5]; animal 5, in g (unit assumed)
  Weights of the tumors at the end of the experiment: 0.225
[5]; animal 6, in g (unit assumed)
  Weights of the tumors at the end of the experiment: 0.205
[5]; animal 7, in g (unit assumed)
  Weights of the tumors at the end of the experiment: 0.239
[5]; [10]
  Weights of the tumors at the end of the experiment, MEAN: 0.528
[6]; animal 1, in g (unit assumed)
  Weights of the tumors at the end of the experiment: 0.5323
[6]; animal 2, in g (unit assumed)
  Weights of the tumors at the end of the experiment: 0.2277
[6]; animal 3, in g (unit assumed)
  Weights of the tumors at the end of the experiment: 0.3143
[6]; animal 5, in g (unit assumed)
  Weights of the tumors at the end of the experiment: 0.2239
[6]; animal 6, in g (unit assumed)
  Weights of the tumors at the end of the experiment: 0.2604
[6]; animal 7, in g (unit assumed)
  Weights of the tumors at the end of the experiment: 1.2243
[6]; [10]
  Weights of the tumors at the end of the experiment, MEAN: 0.4638
[7]; Cont (non-targeting) siRNA
  IC50: 4.56 nM
[7]; HRAS siRNA
  IC50: 10.5 nM
[4]; SW1573, read-out: Relative cell viability (MEAN), SW1573, 25 nM tipifarnib + 0 μM BI2852
  viability at 0.025 µM: 41.4%
[4]; SW1573, read-out: Relative cell viability (MEAN), SW1573, 50 nM tipifarnib + 0 μM BI2852
  viability at 0.05 µM: 35.4%
[4]; SW1573, read-out: Relative cell viability (MEAN), SW1573, 100 nM tipifarnib + 0 μM BI2852
  viability at 0.1 µM: 29.2%

## C=C(F)C(=O)N1CCN(c2nc(OC[C@@H]3CCCN3C)nc3c2CCN(c2cccc4cccc(Cl)c24)C3)C[C@@H]1CC#N [adagrasib]
[4]; SW1573, 144 h, read-out: Relative cell viability, 6/A3, SW1573, 10 nM adagrasib + 0 nM tipifarnib, six days
  viability at 0.01 µM: 85.3%
[4]; SW1573, 144 h, read-out: Relative cell viability, 6/A3, SW1573, 25 nM adagrasib + 0 nM tipifarnib, six days
  viability at 0.025 µM: 77.3%
[4]; SW1573, 144 h, read-out: Relative cell viability, 6/A3, SW1573, 100 nM adagrasib + 0 nM tipifarnib, six days
  viability at 0.1 µM: 67.2%
[4]; SW1573, 144 h, read-out: Relative cell viability, 7/A3, SW1573, 10 nM adagrasib + 0 nM lonafarnib, six days
  viability at 0.01 µM: 86.6%
[4]; SW1573, 144 h, read-out: Relative cell viability, 7/A3, SW1573, 25 nM adagrasib + 0 nM lonafarnib, six days
  viability at 0.025 µM: 79.4%
[4]; SW1573, 144 h, read-out: Relative cell viability, 7/A3, SW1573, 100 nM adagrasib + 0 nM lonafarnib, six days
  viability at 0.1 µM: 72.5%
[8]; read-out: Relative cell viability, 6/A1, 25 nM adagrasib + 0 nM tipifarnib
  viability at 0.025 µM: 58.2%
[8]; read-out: Relative cell viability, 6/A1, 100 nM adagrasib + 0 nM tipifarnib
  viability at 0.1 µM: 46.7%
[8]; read-out: Relative cell viability, 6/A1, 500 nM adagrasib + 0 nM tipifarnib
  viability at 0.5 µM: 45.9%
[8]; read-out: Relative cell viability, 7/A1, 10 nM adagrasib + 0 nM lonafarnib
  viability at 0.01 µM: 52.5%
[8]; read-out: Relative cell viability, 7/A1, 100 nM adagrasib + 0 nM lonafarnib
  viability at 0.1 µM: 29.2%
[8]; read-out: Relative cell viability, 7/A1, 500 nM adagrasib + 0 nM lonafarnib
  viability at 0.5 µM: 19.4%
[9]; read-out: Relative cell viability, 6/A2, 25 nM adagrasib + 0 nM tipifarnib
  viability at 0.025 µM: 50.4%
[9]; read-out: Relative cell viability, 6/A2, 50 nM adagrasib + 0 nM tipifarnib
  viability at 0.05 µM: 38.3%
[9]; read-out: Relative cell viability, 6/A2, 100 nM adagrasib + 0 nM tipifarnib
  viability at 0.1 µM: 28.9%
[9]; read-out: Relative cell viability, 7/A2, 25 nM adagrasib + 0 nM lonafarnib
  viability at 0.025 µM: 50.8%
[9]; read-out: Relative cell viability, 7/A2, 50 nM adagrasib + 0 nM lonafarnib
  viability at 0.05 µM: 37.5%
[9]; read-out: Relative cell viability, 7/A2, 100 nM adagrasib + 0 nM lonafarnib
  viability at 0.1 µM: 27.3%

Reference: patent US20240058321A1, “FARNESYL-TRANSFERASE INHIBITORS AND KRAS INHIBITORS FOR TREATING KRAS MUTANT CANCERS” (SEMMELWEIS EGYETEM, priority 2021, published 2024)
